Test results reported in ChEMBL document CHEMBL3627688, “Structure-based hybridization, synthesis and biological evaluation of novel tetracyclic heterocyclic azathioxanthone analogues as potential antitumor agents” (Eur J Med Chem, 2015).

Assays:
MDA-MB-231 = assay: Growth inhibition of human MDA-MB-231/ATCC cells assessed as cell growth at 10 uM incubated for 48 hrs by sulforhodamine B assay; type: functional; conditions: MDA-MB-231, 48 h, read-out: Activity
MCF7 = assay: Growth inhibition of human MCF7 cells assessed as cell growth at 10 uM incubated for 48 hrs by sulforhodamine B assay; type: functional; conditions: MCF7, 48 h, read-out: Activity
K562 = assay: Growth inhibition of human K562 cells assessed as cell growth at 10 uM incubated for 48 hrs by sulforhodamine B assay; type: functional; conditions: K562, 48 h, read-out: Activity
SW-620 = assay: Growth inhibition of human SW620 cells assessed as cell growth at 10 uM incubated for 48 hrs by sulforhodamine B assay; type: functional; conditions: SW-620, 48 h, read-out: Activity
TK-10 = assay: Growth inhibition of human TK10 cells assessed as cell growth at 10 uM incubated for 48 hrs by sulforhodamine B assay; type: functional; conditions: TK-10, 48 h, read-out: Activity
SN12C = assay: Growth inhibition of human SN12C cells assessed as cell growth at 10 uM incubated for 48 hrs by sulforhodamine B assay; type: functional; conditions: read-out: Activity
CCRF-CEM = assay: Growth inhibition of human CCRF-CEM cells assessed as cell growth at 10 uM incubated for 48 hrs by sulforhodamine B assay; type: functional; conditions: read-out: Activity
[1] = Growth inhibition of human HOP92 cells assessed as cell growth at 10 uM incubated for 48 hrs by sulforhodamine B assay; type: functional; conditions: HOP-92, 48 h, read-out: Activity
U-251 = assay: Growth inhibition of human U251 cells assessed as cell growth at 10 uM incubated for 48 hrs by sulforhodamine B assay; type: functional; conditions: U-251, 48 h, read-out: Activity
UACC-257 = assay: Growth inhibition of human UACC257 cells assessed as cell growth at 10 uM incubated for 48 hrs by sulforhodamine B assay; type: functional; conditions: UACC-257, 48 h, read-out: Activity
NCI-H23 = assay: Growth inhibition of human NCI-H23 cells assessed as cell growth at 10 uM incubated for 48 hrs by sulforhodamine B assay; type: functional; conditions: NCI-H23, 48 h, read-out: Activity
HL-60(TB) = assay: Growth inhibition of human HL-60(TB) cells assessed as cell growth at 10 uM incubated for 48 hrs by sulforhodamine B assay; type: functional; conditions: HL-60, 48 h, read-out: Activity
HT-29 = assay: Growth inhibition of human HT-29 cells assessed as cell growth at 10 uM incubated for 48 hrs by sulforhodamine B assay; type: functional; conditions: HT-29, 48 h, read-out: Activity
MDA-MB-435 = assay: Growth inhibition of human MDA-MB-435 cells assessed as cell growth at 10 uM incubated for 48 hrs by sulforhodamine B assay; type: functional; conditions: MDA-MB-435, 48 h, read-out: Activity
NCI-H460 = assay: Growth inhibition of human NCI-H460 cells assessed as cell growth at 10 uM incubated for 48 hrs by sulforhodamine B assay; type: functional; conditions: NCI-H460, 48 h, read-out: Activity
ACHN = assay: Growth inhibition of human ACHN cells assessed as cell growth at 10 uM incubated for 48 hrs by sulforhodamine B assay; type: functional; conditions: read-out: Activity
SF-268 = assay: Growth inhibition of human SF268 cells assessed as cell growth at 10 uM incubated for 48 hrs by sulforhodamine B assay; type: functional; conditions: SF-268, 48 h, read-out: Activity
SK-MEL-28 = assay: Growth inhibition of human SK-MEL-28 cells assessed as cell growth at 10 uM incubated for 48 hrs by sulforhodamine B assay; type: functional; conditions: SK-MEL-28, 48 h, read-out: Activity
HOP-62 = assay: Growth inhibition of human HOP62 cells assessed as cell growth at 10 uM incubated for 48 hrs by sulforhodamine B assay; type: functional; conditions: HOP-62, 48 h, read-out: Activity
OVCAR-3 = assay: Growth inhibition of human OVCAR3 cells assessed as cell growth at 10 uM incubated for 48 hrs by sulforhodamine B assay; type: functional; conditions: OVCAR-3, 48 h, read-out: Activity
SNB-19 = assay: Growth inhibition of human SNB19 cells assessed as cell growth at 10 uM incubated for 48 hrs by sulforhodamine B assay; type: functional; conditions: SNB-19, 48 h, read-out: Activity
SK-MEL-5 = assay: Growth inhibition of human SK-MEL-5 cells assessed as cell growth at 10 uM incubated for 48 hrs by sulforhodamine B assay; type: functional; conditions: SK-MEL-5, 48 h, read-out: Activity
T47D = assay: Growth inhibition of human T47D cells assessed as cell growth at 10 uM incubated for 48 hrs by sulforhodamine B assay; type: functional; conditions: read-out: Activity
[2] = Growth inhibition of human MOLT4 cells assessed as cell growth at 10 uM incubated for 48 hrs by sulforhodamine B assay; type: functional; conditions: MOLT-4, 48 h, read-out: Activity
OVCAR-4 = assay: Growth inhibition of human OVCAR4 cells assessed as cell growth at 10 uM incubated for 48 hrs by sulforhodamine B assay; type: functional; conditions: OVCAR-4, 48 h, read-out: Activity
M14 = assay: Growth inhibition of human M14 cells assessed as cell growth at 10 uM incubated for 48 hrs by sulforhodamine B assay; type: functional; conditions: M14, 48 h, read-out: Activity
NCI-H226 = assay: Growth inhibition of human NCI-H226 cells assessed as cell growth at 10 uM incubated for 48 hrs by sulforhodamine B assay; type: functional; conditions: NCI-H226, 48 h, read-out: Activity
DU-145 = assay: Growth inhibition of human DU145 cells assessed as cell growth at 10 uM incubated for 48 hrs by sulforhodamine B assay; type: functional; conditions: DU-145, 48 h, read-out: Activity
SR = assay: Growth inhibition of human SR cells assessed as cell growth at 10 uM incubated for 48 hrs by sulforhodamine B assay; type: functional; conditions: read-out: Activity
[3] = Growth inhibition of human LOXIMVI cells assessed as cell growth at 10 uM incubated for 48 hrs by sulforhodamine B assay; type: functional; conditions: LOX IMVI, read-out: Activity
A549 = assay: Growth inhibition of human A549/ATCC cells assessed as cell growth at 10 uM incubated for 48 hrs by sulforhodamine B assay; type: functional; conditions: A549, 48 h, read-out: Activity
UO-31 = assay: Growth inhibition of human UO31 cells assessed as cell growth at 10 uM incubated for 48 hrs by sulforhodamine B assay; type: functional; conditions: UO-31, 48 h, read-out: Activity
[4] = Growth inhibition of human SF539 cells assessed as cell growth at 10 uM incubated for 48 hrs by sulforhodamine B assay; type: functional; conditions: SF-539, 48 h, read-out: Activity
[5] = Growth inhibition of human BT549 cells assessed as cell growth at 10 uM incubated for 48 hrs by sulforhodamine B assay; type: functional; conditions: BT-549, 48 h, read-out: Activity
PC-3 = assay: Antiproliferative activity against human PC3 cells assessed as cell viability incubated for 72 hrs by MTT assay; type: functional, cell-based; conditions: PC-3, 72 h
[6] = Growth inhibition of human Hs 578T cells assessed as cell growth at 10 uM incubated for 48 hrs by sulforhodamine B assay; type: functional; conditions: read-out: Activity

**Q.** What does the source list for `O=c1c2ccc(Cl)cc2sc2c(Cl)nc3ccccc3c12`?
**A.** growth at 10 µM (MDA-MB-231): 84.3%; growth at 10 µM (MCF7): 82.6%; growth at 10 µM (K562): 101%; growth at 10 µM (SW-620): 99.1%; growth at 10 µM (TK-10): 109%; growth at 10 µM (SN12C): 95.9%; growth at 10 µM (CCRF-CEM): 93.1%; growth at 10 µM [1]: 90.8%; growth at 10 µM (U-251): 102%; growth at 10 µM (UACC-257): 104%; growth at 10 µM (NCI-H23): 85.1%; growth at 10 µM (HL-60(TB)): 99.3%; growth at 10 µM (HT-29): 99.7%; growth at 10 µM (MDA-MB-435): 101%; growth at 10 µM (NCI-H460): 103%; growth at 10 µM (ACHN): 86.8%; growth at 10 µM (SF-268): 110%; growth at 10 µM (SK-MEL-28): 102%; growth at 10 µM (HOP-62): 82%; growth at 10 µM (OVCAR-3): 111%; growth at 10 µM (SNB-19): 108%; growth at 10 µM (SK-MEL-5): 97.4%; growth at 10 µM (T47D): 110%; growth at 10 µM [2]: 98%; growth at 10 µM (OVCAR-4): 87.9%; growth at 10 µM (M14): 106%; growth at 10 µM (NCI-H226): 83.4%; growth at 10 µM (DU-145): 114%; growth at 10 µM (SR): 89%; growth at 10 µM [3]: 90.5%; growth at 10 µM (A549): 105%; growth at 10 µM (UO-31): 66.1%; growth at 10 µM [4]: 89%; growth at 10 µM [5]: 110%; IC50 (PC-3): > 15 µM; growth at 10 µM [6]: 95.1%

**Q.** For `O=C(O)c1c(Sc2ccc(Cl)cc2)c(O)nc2ccccc12`, which growth at 10 µM (MDA-MB-231) is on record?
**A.** 95.7%

**Q.** What about the growth at 10 µM (MCF7) of the same compound?
**A.** 92%

**Q.** And the growth at 10 µM (K562)?
**A.** 112%

**Q.** And the growth at 10 µM (SW-620)?
**A.** 96.9%

**Q.** What about the growth at 10 µM (TK-10) of the same compound?
**A.** 118%

**Q.** And the growth at 10 µM (SN12C)?
**A.** 95.8%

**Q.** And the growth at 10 µM (CCRF-CEM)?
**A.** 98.3%

**Q.** And the growth at 10 µM [1]?
**A.** 73%

**Q.** And the growth at 10 µM (U-251)?
**A.** 99.6%

**Q.** What about the growth at 10 µM (UACC-257) of the same compound?
**A.** 122%

**Q.** What about the growth at 10 µM (NCI-H23) of the same compound?
**A.** 92.6%

**Q.** What about the growth at 10 µM (HL-60(TB)) of the same compound?
**A.** 106%

**Q.** And the growth at 10 µM (HT-29)?
**A.** 101%

**Q.** And the growth at 10 µM (MDA-MB-435)?
**A.** 102%

**Q.** And the growth at 10 µM (NCI-H460)?
**A.** 104%

**Q.** What about the growth at 10 µM (ACHN) of the same compound?
**A.** 113%

**Q.** What about the growth at 10 µM (SF-268) of the same compound?
**A.** 114%

**Q.** And the growth at 10 µM (SK-MEL-28)?
**A.** 99%

**Q.** And the growth at 10 µM (HOP-62)?
**A.** 116%

**Q.** What about the growth at 10 µM (OVCAR-3) of the same compound?
**A.** 121%

**Q.** And the growth at 10 µM (SNB-19)?
**A.** 97.2%

**Q.** And the growth at 10 µM (SK-MEL-5)?
**A.** 98.1%

**Q.** And the growth at 10 µM (T47D)?
**A.** 99.6%

**Q.** And the growth at 10 µM [2]?
**A.** 97.2%

**Q.** And the growth at 10 µM (OVCAR-4)?
**A.** 98.4%

**Q.** What about the growth at 10 µM (M14) of the same compound?
**A.** 107%

**Q.** What about the growth at 10 µM (NCI-H226) of the same compound?
**A.** 106%

**Q.** And the growth at 10 µM (DU-145)?
**A.** 115%

**Q.** And the growth at 10 µM (SR)?
**A.** 106%

**Q.** What about the growth at 10 µM [3] of the same compound?
**A.** 90.5%

**Q.** What about the growth at 10 µM (A549) of the same compound?
**A.** 107%

**Q.** What about the growth at 10 µM (UO-31) of the same compound?
**A.** 68.9%

**Q.** What about the growth at 10 µM [4] of the same compound?
**A.** 110%

**Q.** And the growth at 10 µM [5]?
**A.** 124%

**Q.** What about the IC50 (PC-3) of the same compound?
**A.** > 15 µM

**Q.** And the growth at 10 µM [6]?
**A.** 88.3%
